Experimental data from patent US20240358668A1, “METHODS AND CO[…] AM[…] CARD[…] USING (R)-2-AMINO-3-PH[…]” (AXSOME THERAPEUTICS, INC., priority 2021, published 2024).
Marks after values point to notes of the source that are not given here.

Key:
[1] = tested on: participants with narcolepsy or OSA; assay: 1-year OLE study: adverse events; format: in vivo, human
Procedure: A 1-year open-label extension (OLE) study was performed with 374 participants to examined whether clinically significant weight loss (≥5%) in this population had favorable effects on biomarkers of cardiovascular risk compared to no such weight loss. The study measured changes in weight and BP (parent study baseline to OLE week 40) and clinical laboratory assessments (OLE baseline to week 40) in participants with narcolepsy (n=124) or OSA (n=250) who received solriamfetol at doses of 75, 150, or 300 mg/d.
Of 374 participants, 96 (25.7%) had ≥5% weight loss; among those without ≥5% weight loss (n=278), 34 (9.1% of total population) had ≥5% weight gain. Demographics were similar in those with and without weight loss (see Table 1 (demographics and baseline characteristics) and Table 2 (additional demographics and baseline characteristics)). […] Participants with weight loss had mean±SD reductions in SBP (−2.6±11.4 mmHg) and DBP (−1.0±9.0 mmHg), whereas participants without weight loss had increases of +0.65±12.5 mmHg and +1.2±8.7 mmHg, respectively (see Table 3 (blood pressure at baseline and week 40), Table 4 (systolic blood pressure (SBP) maximum changes from baseline to week 40), and Table 5 (diastolic blood pressure (DBP) maximum changes from baseline to week 40)). Adverse events are shown in Table 11 (adverse events in ≥5% of Combined Solriamfetol Participants).

[2] = tested on: adults with EDS associated with OSA; assay: 12-week phase 3 trial in OSA: vital signs, antihypertensive medication use, AEs of hypertension/increased BP; format: in vivo, human
Procedure: An exploratory analysis of data from one 12-week randomized, controlled trial (Schweitzer P K, et al. Am J Respir Crit Care Med. 2019; 199(11):1421-31) and 1 long-term open-label extension (OLE) trial in adults with EDS (Epworth Sleepiness Scale score ≥10) associated with OSA (Malhotra A, et al. Sleep. 2020; 43(2):zsz220) was carried out. Participants with current/prior use of primary OSA therapy (positive airway pressure [PAP], oral pressure therapy, oral appliance, or upper airway stimulation) were eligible, regardless of the level of adherence to primary OSA therapy; participants who had not attempted to use primary OSA therapy were excluded. Adherence to primary OSA therapy was defined as PAP use ≥4 hours/night on ≥70% of nights/week, historical report (with investigator concurrence) of oral appliance use on ≥70% of nights, or effective surgical intervention. Nonadherence to primary OSA therapy was defined as device use at a level lower than specific above, no device use at all, or surgical intervention deemed no longer effective. Participants received placebo or solriamfetol 37.5 (12-week trial only), 75, 150, or 300 mg/day for 12 weeks (12-week trial) or ≤40 weeks (OLE trial). Vital signs, antihypertensive medication use, and adverse events (AEs) were monitored throughout the studies. Baseline demographics, CV comorbidities, and concomitant medications, the percentage of participants who initiated antihypertensive medication use during treatment, and the incidence of and discontinuations due to AEs of hypertension/increased BP were summarized for the safety population (participants who received ≥1 dose of study medication).

[3] = Weight loss <5% at Week 40, 75 mg/d
[4] = Weight loss <5% at Week 40, 150 mg/d
[5] = Weight loss <5% at Week 40, 300 mg/d
[6] = Weight loss <5% at Week 40, all doses
[7] = Weight loss ≥5% at Week 40, 75 mg/d
[8] = Weight loss ≥5% at Week 40, 150 mg/d
[9] = Weight loss ≥5% at Week 40, 300 mg/d
[10] = Weight loss ≥5% at Week 40, all doses

NC(=O)OC[C@H](N)Cc1ccccc1 [Solriamfetol, (R)-2-amino-3-phenylpropyl carbamate]
AE of interest: Decreased appetite [1, 3]: 1(4.8) n(%) | Common AEs: Anxiety [1, 3]: 0 n(%) | Common AEs: Dizziness [1, 3]: 2(9.5) n(%) | Common AEs: Dry mouth [1, 3]: 2(9.5) n(%) | Common AEs: Feeling jittery [1, 3]: 2(9.5) n(%) | Common AEs: Headache [1, 3]: 3(14.3) n(%) | Common AEs: Influenza [1, 3]: 0 n(%) | Common AEs: Insomnia [1, 3]: 4(19.0) n(%) | Common AEs: Nasopharyngitis [1, 3]: 3(14.3) n(%) | Common AEs: Nausea [1, 3]: 0 n(%) | Common AEs: Sinusitis [1, 3]: 1(4.8) n(%) | Common AEs: URTI (Upper Respiratory Tract Infection) [1, 3]: 0 n(%) | AE of interest: Decreased appetite [1, 4]: 5(4.8) n(%) | Common AEs: Anxiety [1, 4]: 10(9.5) n(%) | Common AEs: Dizziness [1, 4]: 2(1.9) n(%) | Common AEs: Dry mouth [1, 4]: 6(5.7) n(%) | Common AEs: Feeling jittery [1, 4]: 7(6.7) n(%) | Common AEs: Headache [1, 4]: 9(8.6) n(%) | Common AEs: Influenza [1, 4]: 3(2.9) n(%) | Common AEs: Insomnia [1, 4]: 14(13.3) n(%) | Common AEs: Nasopharyngitis [1, 4]: 14(13.3) n(%) | Common AEs: Nausea [1, 4]: 12(11.4) n(%) | Common AEs: Sinusitis [1, 4]: 2(1.9) n(%) | Common AEs: URTI (Upper Respiratory Tract Infection) [1, 4]: 6(5.7) n(%) | AE of interest: Decreased appetite [1, 5]: 6(3.9) n(%) | Common AEs: Anxiety [1, 5]: 2(1.3) n(%) | Common AEs: Dizziness [1, 5]: 4(2.6) n(%) | Common AEs: Dry mouth [1, 5]: 5(3.3) n(%) | Common AEs: Feeling jittery [1, 5]: 7(4.6) n(%) | Common AEs: Headache [1, 5]: 15(9.9) n(%) | Common AEs: Influenza [1, 5]: 2(1.3) n(%) | Common AEs: Insomnia [1, 5]: 3 (2.0) n(%) | Common AEs: Nasopharyngitis [1, 5]: 15(9.9) n(%) | Common AEs: Nausea [1, 5]: 8 (5.3) n(%) | Common AEs: Sinusitis [1, 5]: 11(7.2) n(%) | Common AEs: URTI (Upper Respiratory Tract Infection) [1, 5]: 14(9.2) n(%) | AE of interest: Decreased appetite [1, 6]: 12(4.3) n(%) | Common AEs: Anxiety [1, 6]: 12(4.3) n(%) | Common AEs: Dizziness [1, 6]: 8(2.9) n(%) | Common AEs: Dry mouth [1, 6]: 13(4.7) n(%) | Common AEs: Feeling jittery [1, 6]: 16(5.8) n(%) | Common AEs: Headache [1, 6]: 27(9.7) n(%) | Common AEs: Influenza [1, 6]: 5(1.8) n(%) | Common AEs: Insomnia [1, 6]: 21(7.6) n(%) | Common AEs: Nasopharyngitis [1, 6]: 32(11.5) n(%) | Common AEs: Nausea [1, 6]: 20(7.2) n(%) | Common AEs: Sinusitis [1, 6]: 14(5.0) n(%) | Common AEs: URTI (Upper Respiratory Tract Infection) [1, 6]: 20(7.2) n(%) | AE of interest: Decreased appetite [1, 7]: 0 n(%) | Common AEs: Anxiety [1, 7]: 0 n(%) | Common AEs: Dizziness [1, 7]: 0 n(%) | Common AEs: Dry mouth [1, 7]: 1(100) n(%) | Common AEs: Feeling jittery [1, 7]: 0 n(%) | Common AEs: Headache [1, 7]: 0 n(%) | Common AEs: Influenza [1, 7]: 0 n(%) | Common AEs: Insomnia [1, 7]: 0 n(%) | Common AEs: Nasopharyngitis [1, 7]: 0 n(%) | Common AEs: Nausea [1, 7]: 0 n(%) | Common AEs: Sinusitis [1, 7]: 0 n(%) | Common AEs: URTI (Upper Respiratory Tract Infection) [1, 7]: 0 n(%) | AE of interest: Decreased appetite [1, 8]: 0 n(%) | Common AEs: Anxiety [1, 8]: 3(13.6) n(%) | Common AEs: Dizziness [1, 8]: 2(9.1) n(%) | Common AEs: Dry mouth [1, 8]: 1(4.5) n(%) | Common AEs: Feeling jittery [1, 8]: 2(9.1) n(%) | Common AEs: Headache [1, 8]: 5(22.7) n(%) | Common AEs: Influenza [1, 8]: 1(4.5) n(%) | Common AEs: Insomnia [1, 8]: 2(9.1) n(%) | Common AEs: Nasopharyngitis [1, 8]: 0 n(%) | Common AEs: Nausea [1, 8]: 4(18.2) n(%) | Common AEs: Sinusitis [1, 8]: 3(13.6) n(%) | Common AEs: URTI (Upper Respiratory Tract Infection) [1, 8]: 1(4.5) n(%) | AE of interest: Decreased appetite [1, 9]: 2(2.7) n(%) | Common AEs: Anxiety [1, 9]: 3(4.1) n(%) | Common AEs: Dizziness [1, 9]: 3(4.1) n(%) | Common AEs: Dry mouth [1, 9]: 7(9.6) n(%) | Common AEs: Feeling jittery [1, 9]: 1(1.4) n(%) | Common AEs: Headache [1, 9]: 7(9.6) n(%) | Common AEs: Influenza [1, 9]: 5(6.8) n(%) | Common AEs: Insomnia [1, 9]: 5(6.8) n(%) | Common AEs: Nasopharyngitis [1, 9]: 8(11.0) n(%) | Common AEs: Nausea [1, 9]: 3(4.1) n(%) | Common AEs: Sinusitis [1, 9]: 3(4.1) n(%) | Common AEs: URTI (Upper Respiratory Tract Infection) [1, 9]: 3(4.1) n(%) | AE of interest: Decreased appetite [1, 10]: 2(2.1) n(%) | Common AEs: Anxiety [1, 10]: 6(6.3) n(%) | Common AEs: Dizziness [1, 10]: 5(5.2) n(%) | Common AEs: Dry mouth [1, 10]: 9(9.4) n(%) | Common AEs: Feeling jittery [1, 10]: 3(3.1) n(%) | Common AEs: Headache [1, 10]: 12(12.5) n(%) | Common AEs: Influenza [1, 10]: 6(6.3) n(%) | Common AEs: Insomnia [1, 10]: 7(7.3) n(%) | Common AEs: Nasopharyngitis [1, 10]: 8(8.3) n(%) | Common AEs: Nausea [1, 10]: 7(7.3) n(%) | Common AEs: Sinusitis [1, 10]: 6(6.3) n(%) | Common AEs: URTI (Upper Respiratory Tract Infection) [1, 10]: 4(4.2) n(%) | total participants with AEs of hypertension/increased BP ([2]; 12-week study): 10 participants | AE of HTN/increased BP ([2]; 12-week study, 37.5 mg): 0 n (%) | Discontinuation due to AE of HTN/increased BP ([2]; 12-week study, 37.5 mg): 0 n (%) | Initiated anti-HTN ([2]; 12-week study, 37.5 mg): 1 (1.7) n (%) | AE of HTN/increased BP ([2]; 12-week study, 75 mg): 0 n (%) | Discontinuation due to AE of HTN/increased BP ([2]; 12-week study, 75 mg): 0 n (%) | Initiated anti-HTN ([2]; 12-week study, 75 mg): 0 n (%) | AE of HTN/increased BP, (%) ([2]; 12-week study, 150 mg): (4.3) % | Discontinuation due to AE of HTN/increased BP, (%) ([2]; 12-week study, 150 mg): (0.9)^b % | Initiated anti-HTN ([2]; 12-week study, 150 mg): 1 (0.9) n (%) | AE of HTN/increased BP, (%) ([2]; 12-week study, 300 mg): (4.2) % | Discontinuation due to AE of HTN/increased BP ([2]; 12-week study, 300 mg): 0 n (%) | Initiated anti-HTN ([2]; 12-week study, 300 mg): 2 (1.7) n (%) | serious CV AEs ([2]; 12-week trial): no serious CV AEs
